Laboratory results: publication PMC6804997 (PLoS ONE, 2019)

How the values were obtained:
Experiment in all cases: HDAC enzyme inhibition assay (Ac-peptide-AMC substrate)
Type in all cases: biochemical
HDAC11 = target: T1, HDAC11 (Homo sapiens, UniProt Q96DB2); conditions: HDAC11 vs HDAC6
T1 sequence (Q96DB2 1-347): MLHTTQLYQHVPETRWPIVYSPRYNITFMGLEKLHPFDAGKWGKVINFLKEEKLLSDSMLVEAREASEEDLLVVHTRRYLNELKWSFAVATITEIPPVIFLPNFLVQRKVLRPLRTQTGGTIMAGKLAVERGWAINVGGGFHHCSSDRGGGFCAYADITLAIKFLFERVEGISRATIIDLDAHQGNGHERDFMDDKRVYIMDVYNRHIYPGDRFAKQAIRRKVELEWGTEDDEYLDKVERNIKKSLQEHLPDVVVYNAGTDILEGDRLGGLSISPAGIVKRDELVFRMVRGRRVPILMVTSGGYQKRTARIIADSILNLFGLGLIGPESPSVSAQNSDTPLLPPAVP
Procedure: (§1) HDACs inhibition assay of F7 was performed utilizing 4-amino-7-methylcoumarin (AMC) labeled Ac-peptide (Ac-peptide-AMC) substrates, a service provided by Chempartner Company (Shanghai, China).
(§2) This assay was performed was performed utilizing 4-amino-7-methylcoumarin (AMC) labeled Ac-peptide (Ac-peptide-AMC) substrates, a service provided by Chempartner Company (Shanghai, China).

HDAC4 = HDAC4 (Homo sapiens, UniProt P56524); conditions: HDAC4 vs HDAC6
Chain of HDAC4 (P56524 whole entry, species assumed): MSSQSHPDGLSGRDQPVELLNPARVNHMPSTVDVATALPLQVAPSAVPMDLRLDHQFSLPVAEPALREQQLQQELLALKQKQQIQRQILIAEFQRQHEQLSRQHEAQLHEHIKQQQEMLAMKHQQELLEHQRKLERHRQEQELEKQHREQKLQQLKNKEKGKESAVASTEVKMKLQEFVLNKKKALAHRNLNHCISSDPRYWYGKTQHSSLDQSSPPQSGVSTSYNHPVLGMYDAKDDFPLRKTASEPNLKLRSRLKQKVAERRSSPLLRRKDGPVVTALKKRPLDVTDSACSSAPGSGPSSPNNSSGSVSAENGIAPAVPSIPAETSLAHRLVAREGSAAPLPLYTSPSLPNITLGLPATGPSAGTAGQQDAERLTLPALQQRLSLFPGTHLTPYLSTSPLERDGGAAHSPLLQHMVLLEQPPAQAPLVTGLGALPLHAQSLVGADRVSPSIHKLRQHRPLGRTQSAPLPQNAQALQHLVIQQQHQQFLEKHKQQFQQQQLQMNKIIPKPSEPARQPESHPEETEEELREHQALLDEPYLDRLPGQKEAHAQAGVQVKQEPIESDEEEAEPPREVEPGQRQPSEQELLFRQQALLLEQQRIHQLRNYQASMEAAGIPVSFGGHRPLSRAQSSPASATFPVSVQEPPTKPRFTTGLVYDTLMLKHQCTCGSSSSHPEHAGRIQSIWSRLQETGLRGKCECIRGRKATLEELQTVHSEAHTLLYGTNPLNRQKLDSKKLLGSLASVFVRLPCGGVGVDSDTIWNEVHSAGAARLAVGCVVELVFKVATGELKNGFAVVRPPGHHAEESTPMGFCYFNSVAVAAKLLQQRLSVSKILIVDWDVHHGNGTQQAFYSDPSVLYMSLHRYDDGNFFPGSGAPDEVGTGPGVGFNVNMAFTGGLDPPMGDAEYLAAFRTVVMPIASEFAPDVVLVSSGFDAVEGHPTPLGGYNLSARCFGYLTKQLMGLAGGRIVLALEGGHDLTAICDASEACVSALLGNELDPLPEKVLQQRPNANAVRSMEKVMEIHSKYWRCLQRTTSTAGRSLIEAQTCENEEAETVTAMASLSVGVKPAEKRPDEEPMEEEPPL
Procedure: as §1, §2

HDAC7 = target: T2, HDAC7 (Homo sapiens, UniProt Q8WUI4); conditions: HDAC7 vs HDAC6
T2 sequence (Q8WUI4 1-952): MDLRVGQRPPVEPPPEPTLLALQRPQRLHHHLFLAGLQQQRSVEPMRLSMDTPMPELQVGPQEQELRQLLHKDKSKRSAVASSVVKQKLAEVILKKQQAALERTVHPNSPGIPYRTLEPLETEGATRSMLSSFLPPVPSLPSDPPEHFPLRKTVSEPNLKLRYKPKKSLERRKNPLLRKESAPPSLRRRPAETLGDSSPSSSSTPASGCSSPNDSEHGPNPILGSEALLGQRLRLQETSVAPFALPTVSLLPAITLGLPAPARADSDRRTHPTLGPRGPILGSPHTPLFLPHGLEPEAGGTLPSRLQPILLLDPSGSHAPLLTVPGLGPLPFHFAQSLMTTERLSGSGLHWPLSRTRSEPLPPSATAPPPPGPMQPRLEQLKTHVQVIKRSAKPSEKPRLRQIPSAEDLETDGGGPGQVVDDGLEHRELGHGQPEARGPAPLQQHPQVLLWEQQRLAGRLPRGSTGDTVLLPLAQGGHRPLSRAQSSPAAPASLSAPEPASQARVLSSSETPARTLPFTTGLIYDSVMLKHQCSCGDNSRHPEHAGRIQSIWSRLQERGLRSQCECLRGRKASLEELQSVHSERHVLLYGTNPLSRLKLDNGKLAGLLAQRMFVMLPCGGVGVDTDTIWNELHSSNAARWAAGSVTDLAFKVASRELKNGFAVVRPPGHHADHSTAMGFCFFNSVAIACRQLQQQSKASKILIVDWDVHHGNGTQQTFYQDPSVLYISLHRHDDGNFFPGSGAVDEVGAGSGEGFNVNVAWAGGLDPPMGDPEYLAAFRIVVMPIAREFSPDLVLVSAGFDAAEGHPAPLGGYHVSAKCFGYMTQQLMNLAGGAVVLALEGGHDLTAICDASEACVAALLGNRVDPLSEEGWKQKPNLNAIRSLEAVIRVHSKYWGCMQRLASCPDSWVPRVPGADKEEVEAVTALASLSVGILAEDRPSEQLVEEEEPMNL
Procedure: as §1, §2

HDAC9 = HDAC9 (Homo sapiens, UniProt Q9UKV0); conditions: HDAC9 vs HDAC6
Chain of HDAC9 (Q9UKV0 whole entry, species assumed): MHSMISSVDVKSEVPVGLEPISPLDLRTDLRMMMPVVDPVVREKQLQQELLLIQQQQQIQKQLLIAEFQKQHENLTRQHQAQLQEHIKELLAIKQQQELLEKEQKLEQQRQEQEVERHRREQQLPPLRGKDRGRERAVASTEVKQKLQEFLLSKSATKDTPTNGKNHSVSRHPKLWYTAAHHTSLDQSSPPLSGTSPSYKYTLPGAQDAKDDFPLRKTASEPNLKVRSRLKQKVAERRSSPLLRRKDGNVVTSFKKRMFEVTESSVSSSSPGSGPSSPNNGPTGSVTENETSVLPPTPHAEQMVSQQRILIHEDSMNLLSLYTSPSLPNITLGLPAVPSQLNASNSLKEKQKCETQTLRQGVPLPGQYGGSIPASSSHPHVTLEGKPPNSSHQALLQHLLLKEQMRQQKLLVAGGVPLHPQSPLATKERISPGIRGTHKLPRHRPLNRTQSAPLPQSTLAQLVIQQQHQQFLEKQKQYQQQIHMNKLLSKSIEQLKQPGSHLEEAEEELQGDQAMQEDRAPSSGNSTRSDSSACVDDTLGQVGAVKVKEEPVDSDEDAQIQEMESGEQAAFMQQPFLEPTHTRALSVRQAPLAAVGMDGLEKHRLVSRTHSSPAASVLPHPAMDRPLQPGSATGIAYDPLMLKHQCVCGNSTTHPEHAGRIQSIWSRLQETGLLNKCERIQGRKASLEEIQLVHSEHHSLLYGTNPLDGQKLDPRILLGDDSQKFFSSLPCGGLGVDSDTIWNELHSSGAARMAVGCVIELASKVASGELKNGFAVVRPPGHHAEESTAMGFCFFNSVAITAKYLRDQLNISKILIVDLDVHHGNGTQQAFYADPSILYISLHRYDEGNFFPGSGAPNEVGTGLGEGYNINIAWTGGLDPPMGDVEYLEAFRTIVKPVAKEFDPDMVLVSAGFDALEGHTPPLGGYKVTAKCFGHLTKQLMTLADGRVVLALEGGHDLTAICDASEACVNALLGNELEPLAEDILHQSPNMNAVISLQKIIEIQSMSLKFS
Procedure: as §1, §2

HDAC5 = HDAC5 (Homo sapiens, UniProt Q9UQL6); conditions: HDAC5 vs HDAC6
Chain of HDAC5 (Q9UQL6 whole entry, species assumed): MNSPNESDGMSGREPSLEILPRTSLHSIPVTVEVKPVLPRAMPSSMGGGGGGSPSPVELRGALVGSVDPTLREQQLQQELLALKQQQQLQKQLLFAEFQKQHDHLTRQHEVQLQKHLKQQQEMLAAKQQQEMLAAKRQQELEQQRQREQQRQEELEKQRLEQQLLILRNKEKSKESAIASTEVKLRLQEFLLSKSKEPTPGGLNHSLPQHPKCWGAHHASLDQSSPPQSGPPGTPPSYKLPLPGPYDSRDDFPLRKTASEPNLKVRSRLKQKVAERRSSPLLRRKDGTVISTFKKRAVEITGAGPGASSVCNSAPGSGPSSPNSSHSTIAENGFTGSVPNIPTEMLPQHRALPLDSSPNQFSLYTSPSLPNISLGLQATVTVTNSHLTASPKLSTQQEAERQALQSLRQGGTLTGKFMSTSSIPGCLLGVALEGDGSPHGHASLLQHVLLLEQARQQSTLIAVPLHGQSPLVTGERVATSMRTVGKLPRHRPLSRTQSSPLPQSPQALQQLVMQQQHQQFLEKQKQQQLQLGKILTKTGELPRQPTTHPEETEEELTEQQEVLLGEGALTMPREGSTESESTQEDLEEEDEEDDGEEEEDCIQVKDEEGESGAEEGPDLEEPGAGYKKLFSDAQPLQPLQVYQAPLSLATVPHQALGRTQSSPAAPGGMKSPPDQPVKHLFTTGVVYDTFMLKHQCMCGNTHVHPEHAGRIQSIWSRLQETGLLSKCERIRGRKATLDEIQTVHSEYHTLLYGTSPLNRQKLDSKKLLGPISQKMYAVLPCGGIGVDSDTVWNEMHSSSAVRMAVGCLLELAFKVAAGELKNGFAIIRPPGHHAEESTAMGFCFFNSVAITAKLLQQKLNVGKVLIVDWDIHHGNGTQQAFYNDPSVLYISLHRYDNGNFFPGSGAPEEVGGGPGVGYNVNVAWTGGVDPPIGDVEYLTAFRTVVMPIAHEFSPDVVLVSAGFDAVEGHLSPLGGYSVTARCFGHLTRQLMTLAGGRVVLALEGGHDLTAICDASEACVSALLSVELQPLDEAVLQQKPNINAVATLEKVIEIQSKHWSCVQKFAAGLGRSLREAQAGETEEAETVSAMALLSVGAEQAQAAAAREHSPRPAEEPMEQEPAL
Procedure: as §1, §2

COc1ccc(N(C)c2nc(C)nc3ccccc23)cc1OCCCC(=O)NO [23BB, N-hydroxy-4-(2-methoxy-5-(methyl(2-methylquinazolin-4-yl)-amino)phenoxy)butanamide]
> 588.235: Selective Ratio HDAC11 (HDAC11) | Selective Ratio HDAC4 (HDAC4) | Selective Ratio HDAC7 (HDAC7) | Selective Ratio HDAC9 (HDAC9) | Selective Ratio HDAC5 (HDAC5)
